Legend:
[1] = test system: rat fibromyalgia model; test: Effects on rat fibromyalgia model (acidic saline injection; allodynia by von Frey filaments); format: in vivo; details: compared with the vehicle group, Day 7, 1-3 h after dosing, p<0.05, FIG. 1
Protocol: In the experiments, 5 to 6 male SD rats of 6 to 7 weeks old were used for one experimental group. One hundred microliters of acidic physiological saline with pH of 4.0 was injected twice (taking the day when administration of acidic physiological saline started as Day 1, the administration was carried out once on Day 1 and once on Day 6) to gastrocnemius muscle of right hindlimb of each anesthetized rat to prepare a rat fibromyalgia model (Sluka et al., J. Pharmacol. Exp. Ther., 2002, vol. 302, p. 1146; Nagakura et al., Pain, 2009, vol. 146, p. 26; Sluka et al., Pain, 2009, vol. 146, p. 3), which was considered to reflect clinical symptoms of fibromyalgia based on their pharmacological characteristics and thus widely used in basic studies of fibromyalgia. In the same manner, physiological saline was administered to the control group.
For measurement of allodynia observed in a rat fibromyalgia model, a 50% withdrawal threshold (g) was determined using von Frey filaments in accordance with the method described in Chaplan et al., J. Neurosci. Methods, 1994, vol. 53, p. 55. On Day 7, allodynia was measured before oral administration of the test compound as Pre, and 1-, 2- and 3-hour after oral administration of the test compound. Rats which developed allodynia by receiving intramuscular injection of acidic physiological saline were used as a rat fibromyalgia model to evaluate the analgesic effect of the test compound. The term “rats which developed allodynia” herein means the rats showing a 50% withdrawal threshold (g) (the mean value of right and left hind paws) of 6 g or less. Pregabalin was used as a positive control.
Compound 3, which is included in Compound (I), was suspended in 0.5% methylcellulose solution (hereinafter “0.5% MC”) to a concentration of 5 mg/mL or 10 mg/mL, and orally administered at an administration volume of 1 mL per 1 kg body weight. Pregabalin was suspended in 0.5% MC to a concentration of 10 mg/mL, and orally administered at an administration volume of 1 mL per 1 kg body weight. The vehicle group received oral administration of 0.5% MC. […]

[2] = test system: mouse partial sciatic nerve ligation model; test: Mouse partial sciatic nerve ligation model (Seltzer model), von Frey test (neuropathic pain); format: in vivo; design: von Frey Total Score of 1 Hour after Oral Administration (Mean ± S.E.), Test Compound-Administered Group: scale not given here; details: for Score Improvement %: 1 hour after administration, relative to vehicle and sham surgery groups; for von Frey Total Score of 1 Hour after Oral Administration (Mean ± S.E.), Test Compound-Administered Group: n = 5-6, 7 days after ligation
Protocol: Mouse models of partial sciatic nerve ligation were prepared according to Seltzer's method (Malmberg et al., Pain, 1998, vol. 76, p. 215-222). Male ICR mice of 5 weeks old were anesthetized with Sodium pentobarbital (70 mg/kg, i.p.), and thereafter, the sciatic nerve at the femoral region of the right hindlimb of each mouse was exposed, and the sciatic nerve was triply ligated tightly with silk suture of 8-0 (NATSUME SEISAKUSHO) under microscope so that only half thickness of the nerve was trapped in the ligature, which mice were used as a ligation group. The mice whose sciatic nerves were exposed but not ligated were used as a sham surgery group.
Evaluation of neuropathic pain (hereinafter “von Frey test”) was carried out as follows. Mice were conditioned for at least 1 hour in an acryl cage for measurement (NATSUME SEISAKUSHO) placed on a wire net. Thereafter, using a filament (North Coast Medical, Inc. CA, USA) which exerted a pressure of 0.16 g, the mice were subjected to mechanical tactile stimulus by applying the filament to the plantar surface of both hindpaws 3 times, each for 3 seconds, with an interval of 3 seconds.
Seven days after the sciatic nerve ligation, test compounds were orally administered to the mice. Prior to the oral administration of the test compounds, the von Frey test was carried out to split the animals of the ligation group into vehicle groups and test compound-administered groups so that the sums of the total scores of the groups were equalized. The mice of the sham surgery groups, the vehicle groups and the test compound-administered groups were subjected to the von Frey test 1 hour, 2 hours and 3 hours after oral administration of a vehicle or a test compound, and the obtained scores were used as an indicator of analgesic effect. As a vehicle of test compound solution or suspension, DMSO:Tween80:distilled water (1:1:8), 27% HP-β-CD or 0.5% MC was used.
For evaluation of drug efficacy, data were statistically processed by unpaired multigroup t test (adjusted by Dunnett), taking the vehicle group of each measurement time as a control.

[3] = test system: fibromyalgia; details: reported, Abeles et al., Am J. Med., 2008; cited from earlier work

COc1ccc(-n2nc(C3(O)CCC(O)CC3)cc2-c2ccc(C)cc2)cc1 (single isomer, unassigned) [Compound 3, 1-(1-(4-methoxyphenyl)-5-(p-tolyl)-1H-pyrazol-3-yl)cyclohexan-cis-1,4-diol]
allodynia observed in the rat fibromyalgia model (50% withdrawal threshold) ([1]; oral administration 5 mg/kg): significantly improved allodynia | allodynia observed in the rat fibromyalgia model (50% withdrawal threshold) ([1]; oral administration 10 mg/kg): significantly improved allodynia | Score Improvement % ([2]; dose 0.3 mg/kg oral, 0.3 mg/kg): 83% | von Frey Total Score of 1 Hour after Oral Administration (Mean ± S.E.), Test Compound-Administered Group ([2]; dose 0.3 mg/kg oral, 0.3 mg/kg): 1.2 ± 0.8

COc1ccc2cc([C@H](C)C(=O)O)ccc2c1 [naproxen]
analgesic effect in treating fibromyalgia [3]: any statistically significant analgesic effect is not observed

CC(C)C[C@H](CN)CC(=O)O [pregabalin, reference compound]
allodynia observed in the rat fibromyalgia model (50% withdrawal threshold) ([1]; oral administration 10 mg/kg): significantly improved allodynia

COc1ccc(-c2cc(C3(O)CCC(O)CC3)nn2-c2ccc(OC)cc2)cc1 (stereo not drawn) [Compound 8, 1-(1,5-bis(4-methoxyphenyl)-1H-pyrazol-3-yl)cyclohexan-cis-1,4-diol]
von Frey Total Score of 1 Hour after Oral Administration (Mean ± S.E.), Test Compound-Administered Group ([2]; dose 10 mg/kg oral): 2.2 ± 0.5

COc1ccc(-n2nc(C3(O)CCC(O)CC3)c(Cl)c2-c2ccc(C)cc2)cc1 (stereo not drawn) [Compound 9, 1-(4-chloro-1-(4-methoxyphenyl)-5-(p-tolyl)-1H-pyrazol-3-yl)cyclohexan-cis-1,4-diol]
von Frey Total Score of 1 Hour after Oral Administration (Mean ± S.E.), Test Compound-Administered Group ([2]; dose 10 mg/kg oral): 1.7 ± 0.6

COc1ccc(-n2nc(C3(O)CCC(O)(C(F)(F)F)CC3)cc2-c2ccc(C)cc2)cc1 (stereo not drawn) [Compound 10, 1-(1-(4-methoxyphenyl)-5-(p-tolyl)-1H-pyrazol-3-yl)-4-(trifluoromethyl)cyclohexan-cis-1,4-diol]
von Frey Total Score of 1 Hour after Oral Administration (Mean ± S.E.), Test Compound-Administered Group ([2]; dose 1 mg/kg oral): 1.5 ± 0.5

CC(C)Cc1ccc(C(C)C(=O)O)cc1 (stereo not shown) [ibuprofen]
analgesic effect in treating fibromyalgia [3]: any statistically significant analgesic effect is not observed

COc1ccc(-n2nc(C3(O)CCC(C(=O)O)CC3)cc2-c2ccc(C)cc2)cc1 (stereo not drawn) [Compound 16, 4-hydroxy-4-(1-(4-methoxyphenyl)-5-(p-tolyl)-1H-pyrazol-3-yl)-cis-cyclohexanecarboxylic acid]
von Frey Total Score of 1 Hour after Oral Administration (Mean ± S.E.), Test Compound-Administered Group ([2]; dose 1 mg/kg oral): 2.3 ± 0.5

COc1ccc(-c2nc(C3(O)CCC(O)CC3)oc2-c2ccc(OC)cc2)cc1 (stereo not drawn) [Compound 43, 4-(4,5-bis(4-methoxyphenyl)oxazol-2-yl)cyclohexan-cis-1,4-diol]
von Frey Total Score of 1 Hour after Oral Administration (Mean ± S.E.), Test Compound-Administered Group ([2]; dose 10 mg/kg oral): 0.8 ± 0.7

COc1ccc(-n2nc(C3(O)CCC(O)CC3)cc2-c2ccc(C)c(F)c2)cc1 (stereo not shown) [Compound 55]
von Frey Total Score of 1 Hour after Oral Administration (Mean ± S.E.), Test Compound-Administered Group ([2]; dose 3 mg/kg oral): 0.7 ± 0.5

COc1ccc(-n2nc(C3(O)CCC(O)CC3)cc2-c2ccc(C)cc2)cc1F (stereo not shown) [Compound 54]
von Frey Total Score of 1 Hour after Oral Administration (Mean ± S.E.), Test Compound-Administered Group ([2]; dose 10 mg/kg oral): 1.2 ± 0.6

COc1ccc(-n2nc(C3(O)CCC(O)CC3)cc2-c2ccc(C)cc2)cc1 (single isomer, unassigned) [Compound 2, 1-(1-(4-methoxyphenyl)-5-(p-tolyl)-1H-pyrazol-3-yl)cyclohexan-trans-1,4-diol]
Score Improvement % ([2]; dose 0.3 mg/kg oral, 0.3 mg/kg): 104% | von Frey Total Score of 1 Hour after Oral Administration (Mean ± S.E.), Test Compound-Administered Group ([2]; dose 0.3 mg/kg oral, 0.3 mg/kg): 0.8 ± 0.5

Reference: patent publication US8957094B2, “Therapeutic agent or prophylactic agent for fibromyalgia” (Toray Industries, Inc., priority 2010, dated 2015)
